Series [1] is described as follows: UV-Vis titrations for solubility. The format is physicochemical. The method, then: The study of UV-vis properties of pyridine-based polyheteroaromatic compounds detailed in this study enable the determination of their solubility in various conditions (DMSO, H2O and cacodylate buffers (10 mM sodium cacodylate+100 mM NaCl (for Caco.Na) or KCl (for Caco.K)): the simplest method for this is to measure the absorption spectra of compound 3 at various concentrations (from 0 to 32 μM); solubility of compound 3 is thus evaluated through the reporting of its absorbance at a given wavelength (herein 338 nm (A338)) as a function of the concentration of compound 3 and applying the Beer-Lambert law.

A short description of series [2]: Fluorescence quantum yield. It counts as physicochemical. Particulars: anthracene in ethanol as reference. How it is done: Pyridine-based polyheteroaromatic compounds detailed in this study are characterized by a strong fluorescence. Remarkably, the quantum yield is not affected by the nature of the solvent they are used in, from pure organic (e.g. DMSO) to physiological conditions (e.g. buffer: 10 mM sodium cacodylate+100 mM KCl, pH 7.2, see Table). The modification of the fluorescence properties of studied compounds upon interaction with DNA enables to compare their apparent binding affinity for several quadruplexes of biological relevance (27).
NB: the quantum yields (and standard deviations (s.d.)) of compound 3 were measured in CH2Cl2 (DCM) and water, with anthracene in ethanol as reference.

For series [3], the system named is 22AG quadruplex-DNA (human telomeric sequence). As to the kind of experiment: Fluorescence titration with 22AG. It counts as binding. Particulars: 0.25 μM compound, λex=340 nm. The method, then:
The quadruplex-DNA used herein is 22AG: it results from the folding of a 22 nt oligonucleotide that mimics the human telomeric sequence: 22AG is [5′-AG3(T2AG3)3-3′]. Quadruplex-structure from 22AG is prepared by heating the corresponding oligonucleotide at 90° C. for 5 min in a 10 mM sodium cacodylate buffer pH 7.2, 100 mM NaCl (for 22AG Na) or KCl (for 22AG K) and cooling in ice to favor the intramolecular folding by kinetic trapping. Concentrations are determined by UV-Vis measurements (after thermal denaturation, 5 min at 85° C.) at 260 nm before use. (see FIG. 7A and FIG. 7B).

Series [4] has as its system ds17 (17 base-pair duplex-DNA). As to the kind of experiment: Fluorescence titration with ds17. Particulars: 0.25 μM compound, cacodylate buffer + 100 mM KCl, λex=340 nm. It counts as binding. The method, then: The quadruplex-over duplex-selectivity is evaluated through fluorescence titrations by comparison of experiments carried out with 22AG (see above) and with a short duplex-DNA: ds17, which is a 17 base-pair duplex-DNA that represents a biological sequence used in previous studies (28); the sequences of the two complementary strands are the following: [5′-CCAGTTCGTAGTAACCC-3′]/[5′-GGGTTACTACGAACTGG-3′]. Duplex-structure is prepared by heating the two corresponding complementary strands at 90° C. for 5 min in a 10 mM sodium cacodylate buffer pH 7.3, 100 mM KCl followed by a slow cooling over 6 hrs. Concentrations are determined by UV-Vis measurements (after thermal denaturation, 5 min at 85° C.) at 260 nm before use.

The subject of another series is c-myc quadruplex-DNA. Kind of series: Fluorescence titration with c-myc. The format is binding. Particulars: 0.25 μM compound, cacodylate buffer + 100 mM KCl, λex=340 nm. The method, then:
(§1) The intra-quadruplex selectivity is evaluated through fluorescence titrations by comparison of experiments carried out with 22AG (see above) and with two other quadruplex-structures: c-myc and c-kit2. The formation of these two quadruplex-DNAs is currently highly suspected in the promoter region of c-myc (see above) and c-kit (22; 29 and 30)oncogenes. The sequences are the following: c-myc: [5′-[…]-3′] and c-kit2: [(5′-[…]-3′]; Quadruplex-structures are prepared by heating the corresponding oligonucleotide at 90° C. for 5 min in a 10 mM sodium cacodylate buffer pH 7.2, 100 mM KCl and cooling in ice to favor the intramolecular folding by kinetic trapping. Concentrations are determined by UV-Vis measurements (after thermal denaturation, 5 min at 85° C.) at 260 nm before use.

Series [5] concerns c-kit2 quadruplex-DNA. Kind of series: Fluorescence titration with c-kit2. It counts as binding. Particulars: 0.25 μM compound, cacodylate buffer + 100 mM KCl, λex=340 nm. The method, then: as §1
Series [6] deals with c-kit2 quadruplex-DNA. Kind of series: Circular dichroism with c-kit2. It counts as binding. Particulars: 3 μM c-kit2, 30 μM compound, 100 mM KCl, 285 nm. How it is done:
Circular dichroism (CD) enables a deep study of the modification of the DNA structure upon the binding of a ligand; it thus reflects the affinity of the ligand to its target, and can also provide insight into its binding mode (Paramasivan et al, Methods, 2007, 43, 324).
The intra-quadruplex selectivity is evaluated through CD by comparison of experiments carried out with 22AG (see above) and with two other quadruplex-structures: c-myc and c-kit2 (see above). The results are given on FIG. 11A and FIG. 11B. To a 3 μM solution of both c-kit2 (left) and c-myc (right) in cacodylate buffer (10 mM sodium cacodylate+100 mM KCl) is added an excess of compound 3 (30 μM, 10 equiv.).

For the next series, the target named is hPOT1. Kind of series: Electrophoretic mobility shift assay, POT1/22AG binding. More on the design: species or system human. Particulars: 30 nM hPOT1, 20 nM 32P-22AG, 30 min room temperature. The method, then:
An electrophoretic mobility shift assay using hPOT1 was performed on the telomeric 22AG oligonucleotide (see above). 22AG was labeled at the 5′ end with [γ-^32P]-ATP using T4 polynucletide kinase. Purified recombinant hPOT1 was produced in a baculovirus expression system. The POT1/22AG binding assay was performed in a total volume of 10 μl containing 50 mM HEPES, pH 7.9, 100 mM NaCl, 0.1 mM EDTA, 4% w/v sucrose, 2% v/v glycerol, 0.1 mg/ml BSA, 0.02% w/v bromophenol blue, 30 nM hPOT1, 20 nM [[…]-^32P]-22AG. Different concentrations of compound 3 (10, 1, 0.1 and 0.01 μM) were added with hPOT1 to the solution and the mixture was incubated at room temperature for 30 min. Each individual sample was separated by electroporesis on 1% agarose gel in 0.5×Tris-Borate-EDTA buffer. The gel was run at 80V for 35 min, dried on whatman DE81 paper and radiaoactivity visualized by a phosphorimager (Typhoon 9210, Amersham). Analysis of the data was carried out by ImageQuant software (Amersham) and results were expressed as a percentage of the POT1-22AG complex obtained in the untreated control (defined as 100%) (see FIG. 14).

`c1cc(-c2cnc(-c3cccc(-c4cnco4)n3)o2)nc(-c2cnc(-c3cccc(-c4cnco4)n3)o2)c1` [compound 3, 2,6-bis{2-[6-(oxazol-5-yl)pyridin-2-yl]oxazol-5-yl}pyridine]: the solubility result in series [1] (DMSO, H2O and aqueous cacodylate buffers (Na+ or K+-rich), A338, 0 to 32 μM) is on record as “soluble in all the solvent systems used herein”. Besides, the self-aggregation result in series [1] (within the 0 to 32 μM concentration range, all solvent systems) was “does not self-aggregate”. The Quantum yield in series [2] (DCM (CH2Cl2)) is 50.35%; in series [2] (Water) it was 50.37%. Besides, in series [3] (cacodylate buffer + 100 mM KCl), the “fluorescence of compound upon addition of 22AG K” value is reported as “progressive quench of the fluorescence”. Further, the “fluorescence of compound upon addition of 22AG Na” value in series [3] (cacodylate buffer + 100 mM NaCl) is reported as “progressive quench of the fluorescence”. Moreover, the “fluorescence of compound upon addition of ds17” value in series [4] is “do not result in a progressive quench of the fluorescence”. The “fluorescence of compound upon addition of c-myc” value in the series with c-myc quadruplex-DNA is “progressive quench of the fluorescence”. The “fluorescence of compound upon addition of c-kit2” value in the series with c-kit2 quadruplex-DNA [5] is reported as “progressive quench of the fluorescence”. The “CD signal of c-kit2” value in the series with c-kit2 quadruplex-DNA [6] was “modification of the amplitude of the CD signal”. Besides, the IC50 on hPOT1 turned out to be 300 nM.

For the origin of these results see patent US20110201648A1, “POLY-HETEROARYL DERIVATIVES FOR THE TREATMENT OF CANCER” (INSTITUT CURIE, priority 2008, published 2011).
